# What was measured:
# [1] = Cytotoxicity against human HepG2(2.2.15) cells by neutral red dye uptake assay; assay type: functional
# [2] = tested on: Hepatitis B virus; test: Antiviral activity against Hepatitis B virus infected in human HepG2(2.2.15) cells assessed as reduction in viral DNA by Southern blotting; assay type: functional, organism-based
# [3] = tested on: HepG2; test: Cytotoxicity against human HepG2 cells after 3 days by neutral red dye uptake assay; assay type: functional; conditions: HepG2, 72 h
# [4] = tested on: Hepatitis B virus; test: Antiviral activity against Hepatitis B virus infected in human HepG2 cells assessed as reduction in viral DNA after 3 days by Southern blotting; assay type: functional, organism-based; conditions: HepG2, 72 h
# [5] = tested on: Huh-7; test: Cytotoxicity against human HuH7 cells after 4 days by neutral red dye uptake assay; assay type: functional; conditions: Huh-7, 96 h
# [6] = tested on: Hepatitis B virus; test: Antiviral activity against Hepatitis B virus infected in human Huh7 cells assessed as reduction in viral DNA after 4 days by Southern blotting; conditions: Huh-7, 96 h
compound,measurement,setting,value
CC1(C)C=Cc2c(ccc3c2C(=O)C(O)=C(C2=C(C4=C(O)C(=O)c5c(ccc6c5C=CC(C)(C)O6)C4=O)C(=O)c4ccccc4C2=O)C3=O)O1,CC50,[1],1370 µM
same,EC50,[2],10 µM
COc1ccc2c(c1)C(=O)C(C1=C(O)C(=O)c3c(ccc4c3C=CC(C)(C)O4)C1=O)=C(C1=C(O)C(=O)c3c(ccc4c3C=CC(C)(C)O4)C1=O)C2=O,CC50,[1],466 µM
same,EC50,[2],1.5 µM
CC(C)Oc1ccc2c(c1)C(=O)C(C1=C(O)C(=O)c3c(ccc4c3C=CC(C)(C)O4)C1=O)=C(C1=C(O)C(=O)c3c(ccc4c3C=CC(C)(C)O4)C1=O)C2=O,CC50,[1],> 300 µM
same,EC50,[2],0.154 µM
CC1(C)C=Cc2c(ccc3c2C(=O)C(O)=C(C2=C(C4=C(O)C(=O)c5c(ccc6c5C=CC(C)(C)O6)C4=O)C(=O)c4c(ccc5c4C=CC(C)(C)O5)C2=O)C3=O)O1,CC50,[1],45 µM
same,EC50,[2],7.9 µM
CC1(C)CCc2c(ccc3c2C(=O)C(O)=C(C2=C(C4=C(O)C(=O)c5c(ccc6c5CCC(C)(C)O6)C4=O)C(=O)c4c(ccc5c4CCC(C)(C)O5)C2=O)C3=O)O1,CC50,[1],44 µM
same,EC50,[2],0.096 µM
CC1(C)C=Cc2c(ccc3c2C(=O)C(O)=C(C2=C(C4=C(O)C(=O)c5c(ccc6c5C=CC(C)(C)O6)C4=O)C(=O)c4c(ccc5c4CCC(C)(C)O5)C2=O)C3=O)O1,CC50,[1],279 µM
same,EC50,[2],0.009 µM
COc1cccc2c1C(=O)C(C1=C(C3=C(O)C(=O)c4cccc(OC)c4C3=O)C(=O)c3ccccc3C1=O)=C(O)C2=O,CC50,[1],> 300 µM
same,EC50,[2],> 10 µM
COc1ccc2c(c1)C(=O)C(O)=C(C1=C(C3=C(O)C(=O)c4cc(OC)ccc4C3=O)C(=O)c3ccccc3C1=O)C2=O,CC50,[1],58 µM
same,EC50,[2],0.05 µM
COc1cc2c(cc1OC)C(=O)C(C1=C(C3=C(O)C(=O)c4cc(OC)c(OC)cc4C3=O)C(=O)c3ccccc3C1=O)=C(O)C2=O,CC50,[1],> 300 µM
same,EC50,[2],0.4 µM
O=C1C(O)=C(C2=C(C3=C(O)C(=O)c4ccccc4C3=O)C(=O)c3ccccc3C2=O)C(=O)c2ccccc21,CC50,[1],> 300 µM
same,EC50,[2],> 10 µM
CC(C)=CCC[C@]1(C)C=Cc2c(ccc3c2C(=O)C(O)=C(C2=C(C4=C(O)C(=O)c5c(ccc6c5C=C[C@@](C)(CCC=C(C)C)O6)C4=O)C(=O)c4ccccc4C2=O)C3=O)O1,CC50,[1],14 µM
same,EC50,[2],> 10 µM
CC1(C)CCc2c(ccc3c2C(=O)C(O)=C(C2=C(C4=C(O)C(=O)c5c(ccc6c5CCC(C)(C)O6)C4=O)C(=O)c4ccccc4C2=O)C3=O)O1,CC50,[1],1430 µM
same,EC50,[2],3.9 µM
COc1ccc2c(c1)C(=O)C(C1=C(C3=C(O)C(=O)c4ccc(OC)cc4C3=O)C(=O)c3ccccc3C1=O)=C(O)C2=O,CC50,[1],295 µM
same,EC50,[2],56 µM
COc1ccc2c(c1)C(=O)C(O)=C(C1=C(C3=C(O)C(=O)c4cc(OC)ccc4C3=O)C(=O)c3c(ccc4c3CCC(C)(C)O4)C1=O)C2=O,CC50,[1],> 300 µM
same,EC50,[2],0.66 µM
CC1(C)C=Cc2c(ccc3c2C(=O)C=C(O)C3=O)O1,CC50,[3],> 25 µM
same,CC50,[1],> 300 µM
same,EC50,[4],1.9 µM
same,CC50,[5],> 25 µM
same,EC50,[2],4.3 µM
same,EC50,[6],2.5 µM
CC(C)=CCC[C@]1(C)C=Cc2c(ccc3c2C(=O)C(O)=C(C2=C(C4=C(O)C(=O)c5c(ccc6c5C=C[C@@](C)(CCC=C(C)C)O6)C4=O)C(=O)c4c(ccc5c4C=C[C@@](C)(CCC=C(C)C)O5)C2=O)C3=O)O1 [CONOCURVONE],CC50,[1],> 100 µM
same,EC50,[2],> 10 µM
Nc1ccn([C@@H]2CS[C@H](CO)O2)c(=O)n1 [LAMIVUDINE],CC50,[3],> 25 µM
same,CC50,[1],2130 µM
same,EC50,[4],> 2.5 µM
same,CC50,[5],0.1 µM
same,EC50,[2],0.06 µM
same,EC50,[6],0.1 µM
Nc1nc(O)c2ncn(CCC(CO)CO)c2n1 [PENCICLOVIR],CC50,[1],552 µM
same,EC50,[2],3.4 µM

# — ChEMBL document CHEMBL1681755, “Antiviral agents 3. Discovery of a novel small molecule non-nucleoside inhibitor of hepatitis B virus (HBV)” (Bioorg Med Chem Lett, 2011)
